According to US20220233605A1, “METHODS OF MAKING AND USING LIVER CELLS” (University Health Network, priority 2019, published 2022):
“Also recorded” adds a separate entry of the source.

How the values were obtained:
Type in all cases: cell-based, human
CFTR expression = test: Induction of CFTR expression in hepatoblasts differentiated to cholangiocytes in monolayer (co-culture with OP9-Jag1); conditions: hepatoblasts co-cultured with OP9-Jag1, monolayer, 6 days
Method: OP9 cells were maintained as described previously. 30 Gray irradiated OP9 cells were plated on 2.5% Matrigel coated wells (12 well plates) at a concentration of 200,000 cells per well in alpha-modified minimum essential media (a-MEM) supplemented with glutamine (2 mM) and 20% fetal bovine serum. To induce the cholangiocytes differentiation, day 27 hepatoblasts were dissociated using collagenase type I enzyme and then plated onto the irradiated OP9 cells. The plated cells were cultured in H21 DMEM/Ham's F12 (3:1) media supplemented with 0.1% BSA, 1% vol/vol B27 supplement, ascorbic acid, glutamine, MTG, HGF (20 ng/ml), and epidermal growth factor (EGF, 50 ng/ml) for 4 days. […] To promote the maturation of cholangiocytes that express primary cilia and 4D9, the cells were cultured with DMEM/F12 medium with 0.1% BSA, 1% vol/vol B27 supplement, ascorbic acid, glutamine, MTG, Noggin (50 ng/ml), ROCK inhibitor Y-27632 (5 μM) and Forskolin (FSK, 5 μM) for 12 days. The medium for all steps of cholangiocytes differentiation were changed every two days. The cells were maintained in an ambient O2 incubator.
It has previously been reported that it is possible to generate cholangiocytes that express a number of markers that are indicative of mature cells including the cystic fibrosis transmembrane conductance regulator (CFTR) gene, in which mutations cause cystic fibrosis. The development of mature cholangiocytes was dependent on growth of the cells as cysts in 3D semi-solid cultures consisting of Matrigel and collagen. While this approach yielded relatively mature cholangiocytes, the culture system was not amenable to cell expansion or high throughput screening (e.g., for drugs against cystic fibrosis and other biliary diseases). To improve the differentiation efficiency in monolayer cultures, a panel of cytokines and small molecules that are known to play a role in bile duct development were screened to identify those that would promote the upregulation of CFTR expression as an indication of maturation. Since Notch signaling is required for the production of cholangiocytes, hepatoblasts were cultured on either OP9-Jagl cells or Matrigel for 6 days as previously described. […] To further investigate the role of RA signaling, the effects of specific RA receptor agonists as well as a pan antagonist also were tested.

hPSC-derived hepatocytes [1] = test: Zonation of hPSC-derived hepatocytes by Wnt manipulation (gene expression); conditions: added days 38 to 56 with T3
Method: Day 27 hepatoblasts were cultured in DMEM/F12 (50:50) with 0.2% BSA, 1% vol/vol ITS-X, ascorbic acid, glutamine, MTG, Dex (40 ng/ml), and OSM (5 ng/ml) for 6 days in monolayer. Day 33 hepatoblasts were dissociated using collagenase type 1 enzyme to make a small cluster of hepatoblasts. The dissociated small clusters were maintained in a low cluster culture dish and cultured in DMEM/F12 (50:50) medium supplemented with 0.2% BSA, 1% vol/vol ITS-X, ascorbic acid, 1% vol/vol chemically defined lipid mix medium (Thermo Fisher Scientific), 0.5% vol/vol B27, glutamine, MTG, Dex (40 ng/ml), and CHIR99021 (1 μM) for 6 days to promote the maturation in 3D aggregates. […]

hPSC-derived hepatocytes [2] = test: Maturation of hPSC-derived hepatocytes: AFP expression by flow cytometry and qRT-PCR; conditions: added days 38 to 56, aggregates, 40 ng/ml dexamethasone
Method: For these studies, T3 was added to the cultures during the maturation step, from days 38 to 56. During this stage, the cells are cultured as aggregate in the presence of 40 ng/ml dexamethasone, as previously described.

[3] = system: hPSC-derived cholangiocytes; test: Flow cytometric screen for DHC5-4D9 reactive mature cholangiocytes in monolayer; conditions: added to cultures for 6 days, flow cytometry
Method: 30 Gray irradiated OP9 cells were plated on 2.5% Matrigel coated wells (12 well plates) at a concentration of 200,000 cells per well in alpha-modified minimum essential media (a-MEM) supplemented with glutamine (2 mM) and 20% fetal bovine serum. To induce the cholangiocytes differentiation, day 27 hepatoblasts were dissociated using collagenase type I enzyme and then plated onto the irradiated OP9 cells. The plated cells were cultured in H21 DMEM/Ham's F12 (3:1) media supplemented with 0.1% BSA, 1% vol/vol B27 supplement, ascorbic acid, glutamine, MTG, HGF (20 ng/ml), and epidermal growth factor (EGF, 50 ng/ml) for 4 days. […] To promote the maturation of cholangiocytes that express primary cilia and 4D9, the cells were cultured with DMEM/F12 medium with 0.1% BSA, 1% vol/vol B27 supplement, ascorbic acid, glutamine, MTG, Noggin (50 ng/ml), ROCK inhibitor Y-27632 (5 μM) and Forskolin (FSK, 5 μM) for 12 days. […]
To identify pathways that promote further maturation of the hPSC-derived cholangiocytes, a screening approach was used based on flow cytometric identification of cells that express the epitope recognized by the antibody DHCS-4D9, which stains mature bile ductal cells (cholangiocytes) in the adult liver. […] Following this maturation step, the cells were harvested and analyzed by flow cytometry for reactivity with DHC5-4D9.

O=C(O)c1ccc2cc(-c3ccc(O)c(C45CC6CC(CC(C6)C4)C5)c3)ccc2c1 [CD437]
CFTR expression (CFTR expression): induced CFTR expression

CC1(C)CC=C(C#Cc2ccccc2)c2cc(/C=C/c3ccc(C(=O)O)cc3)ccc21 [BMS493]
CFTR expression (CFTR expression): inhibited the induction of CFTR expression

Oc1nc(-c2ccc(C(F)(F)F)cc2)nc2c1CSCC2 [XAV]
zonal gene expression of hepatocytes (hPSC-derived hepatocytes [1]): expressed genes associated with Zone 1 hepatocytes

CCCCCCCCc1ccc(-c2ccc(C(=O)O)cc2)cc1 [AC55649]
CFTR expression (CFTR expression): induced CFTR expression

AM580
CFTR expression (CFTR expression): induced CFTR expression

Cc1c[nH]c(-c2cnc(NCCNc3ccc(C#N)cn3)nc2-c2ccc(Cl)cc2Cl)n1 [CHIR, 6-[[2-[[4-(2,4-Dichlorophenyl)-5-(5-methyl-1H-imidazol-2-yl)-2-pyrimidinyl]amino]ethyl]amino]-3-pyridinecarbonitrile]
zonal gene expression of hepatocytes (hPSC-derived hepatocytes [1]): expressed genes associated with Zone 3 hepatocytes

N[C@@H](Cc1cc(I)c(Oc2ccc(O)c(I)c2)c(I)c1)C(=O)O [T3, Triiodothyronine]
levels of AFP expression (hPSC-derived hepatocytes [2]): dramatic decrease in the levels of AFP expression; also recorded: significantly lower than the levels observed in cells treated with cAMP

B1: N: Noggin, inhibition of the BMP pathway (protein, UniProt Q13253 28-232, looked up)
Noggin: QHYLHIRPAPSDNLPLVDLIEHPDPIFDPKEKDLNETLLRSLLGGHYDPGFMATSPPEDRPGGGGGAAGGAEDLAELDQLLRQRPSGAMPSEIKGLEFSEGLAQGKKQRLSKKLRRKLQMWLWSQTFCPVLYAWNDLGSRFWPRYVKVGSCFSKRSCSVPEGMVCKPSKSVHLTVLRWRCQRRGGQRCGWIPIQYPIISECKCSC
development of DHC5-4D9 cells [3]: promoted the development of DHC5-4D9 cells
